Reference: US9512075B2 (OKAYAMA UNIVERSITY, priority 2012, dated 2016)
In brackets after ≈: the same amount, converted by molar mass. Read-outs that look alike come from different tables or passages of the source.

Legend:
Format in all cases: cell-based
[1] = system: Staphylococcus aureus 209P strain; assay: MIC for Staphylococcus aureus 209P strain; details: Staphylococcus aureus, read-out: MIC Straphyrococcus aureus 209P
[2] = system: Clostridium difficile JCM1296 strain; assay: microbe, parasite or virus in culture; details: Clostridioides difficile, JCM1296, read-out: MIC Clostridium difficile JCM1296
[3] = system: Staphylococcus aureus Smith strain; assay: MIC for Staphylococcus aureus Smith strain; details: read-out: MIC Straphyrococcus aureus Smith
[4] = system: Staphylococcus aureus MRSA No. 17 (methicillin-resistant Staphylococcus aureus: MRSA); assay: MIC for Staphylococcus aureus MRSA No. 17; details: read-out: MIC Straphyrococcus aureus MRSA No. 17 (MRSA)
[5] = system: Clostridium perfringens PB6K strain; assay: microbe, parasite or virus in culture; details: Clostridium perfringens, PB6KSTRAIN, read-out: MIC Clostridium perfringens PB6K, PB6K strain; CD medium, 37° C. overnight, 10% CO2-containing anaerobic conditions
[6] = system: Enterococcus faecalis 5038 strain; assay: MIC for Enterococcus faecalis 5038 strain; details: read-out: MIC Enterococcus faecalis 5038
[7] = system: Escherichia coli BE1121 strain; assay: MIC for Escherichia coli BE1121 strain; details: Escherichia coli, BE1121STRAIN, read-out: MIC Escherichia coli BE1121
[8] = system: Enterococcus faecalis NCTC12201 strain (vancomycin-resistant Enterococcus: VRE); assay: MIC for Enterococcus faecalis NCTC12201 strain (VRE); details: read-out: MIC Enterococcus faecalis NCTC 12201 (VRE)
[9] = system: Escherichia coli K-12 strain; assay: MIC for Escherichia coli K-12 strain; details: Escherichia coli, K12STRAIN, read-out: MIC Escherichia coli K12
[10] = 209P strain, regular bouillon medium, 37° C. overnight, turbidity
[11] = BE1121 strain, regular bouillon medium, 37° C. overnight, turbidity
[12] = K-12 strain, regular bouillon medium, 37° C. overnight, turbidity
[13] = Smith strain, regular bouillon medium, 37° C. overnight, turbidity
[14] = MRSA No. 17, regular bouillon medium, 37° C. overnight, turbidity
[15] = 5038 strain, Heart Infusion Broth medium, 37° C. overnight, turbidity
[16] = NCTC12201 strain (VRE), Heart Infusion Broth medium, 37° C. overnight, turbidity

SMILES | MIC [1, 10] [µg/mL] | MIC [2] [µg/mL] | MIC [3] [µg/mL] | MIC ([4]; MRSA) [µg/mL] | MIC [5] [µg/mL] | MIC ([6]; 5038STRAIN) [µg/mL] | MIC [7, 11] [µg/mL] | MIC [8] [µg/mL] | MIC [9, 12] [µg/mL] | MIC [3, 13] [µg/mL] | MIC [4, 14] [µg/mL] | MIC [6, 15] [µg/mL] | MIC [8, 16] [µg/mL] | MIC ([1]; 209P) [µg/mL] | MIC [7] [µg/mL] | MIC [9] [µg/mL]
CCCCCCCCCC(=O)N1C(=O)C(=C(O)c2ccc(OC)cc2)c2ccccc21 [A062, N-decanoyl-3-(4-methoxybenzoyl)-2-oxyindole] | 128 (≈ 304 µM) | 4 (≈ 9.49 µM) | 2 (≈ 4.74 µM) | 16 (≈ 38 µM) | 8 (≈ 19 µM) | 2 (≈ 4.74 µM) | 256 (≈ 607 µM) | 2 (≈ 4.74 µM) | 256 (≈ 607 µM) |  |  |  |  |  |  | 
CCCCCCCCCCOC(C)C(O)=C1C(=O)N(C(=O)NCCCC)c2ccccc21 (stereo not drawn) [A020, N-(butylaminocarbonyl)-3-(2-decyloxypropionyl)-2-oxyindole] | 256 (≈ 576 µM) | 0.5 (≈ 1.12 µM) |  |  | 4 (≈ 9 µM) |  | 256 (≈ 576 µM) |  | 256 (≈ 576 µM) | 1 (≈ 2.25 µM) | 256 (≈ 576 µM) | 0.5 (≈ 1.12 µM) | 1 (≈ 2.25 µM) |  |  | 
CCCCC1CCC(C(O)=C2C(=O)N(C(=O)Nc3ccc(Br)cc3)c3ccccc32)CC1 (stereo not drawn) [A040, N-(4-bromophenylaminocarbonyl)-3-(4-butylcyclohexylcarbonyl)-2-oxyindole] | 128 (≈ 257 µM) | 8 (≈ 16.1 µM) |  |  | 4 (≈ 8.04 µM) |  | 256 (≈ 515 µM) |  | 256 (≈ 515 µM) | 2 (≈ 4.02 µM) | 128 (≈ 257 µM) | 1 (≈ 2.01 µM) | 1 (≈ 2.01 µM) |  |  | 
CCCCCCCCCC(=O)N1C(=O)/C(=C(/C)O)c2cc(F)ccc21 [A051, N-decanoyl-3-acetyl-5-fluoro-2-oxyindole] |  | 1 (≈ 2.88 µM) |  |  | 8 (≈ 23 µM) |  |  |  |  | 0.5 (≈ 1.44 µM) | 4 (≈ 11.5 µM) | 0.5 (≈ 1.44 µM) | 0.25 (≈ 0.72 µM) | 4 (≈ 11.5 µM) | 2 (≈ 5.76 µM) | 56 (≈ 161 µM)
CCCCCCCCCCOCC(O)=C1C(=O)N(C(C)=O)c2ccccc21 [A013, N-acetyl-3-decyloxyacetyl-2-oxyindole] | 256 (≈ 685 µM) | 0.25 (≈ 0.669 µM) |  |  | 0.5 (≈ 1.34 µM) |  | 256 (≈ 685 µM) |  | 256 (≈ 685 µM) | 256 (≈ 685 µM) | 256 (≈ 685 µM) | 64 (≈ 171 µM) | 32 (≈ 85.7 µM) |  |  | 
CCCCCCCCCC(O)=C1C(=O)Nc2cc(Cl)ccc21 [A002, 3-decanoyl-6-chloro-2-oxyindole] |  | 32 (≈ 99.4 µM) |  |  | 32 (≈ 99.4 µM) |  |  |  |  | 16 (≈ 49.7 µM) | 16 (≈ 49.7 µM) | 16 (≈ 49.7 µM) | 15 (≈ 46.6 µM) | 16 (≈ 49.7 µM) | 128 (≈ 398 µM) | 128 (≈ 398 µM)
CCCCCCCCCCSCC(O)=C1C(=O)N(C(=O)Nc2ccccc2)c2ccc(F)cc21 [A037, N-(phenylaminocarbonyl)-3-decylthioacetyl-5-fluoro-2-oxyindole] | 2 (≈ 4.13 µM) | 0.5 (≈ 1.03 µM) |  |  | 1 (≈ 2.06 µM) |  | 256 (≈ 528 µM) |  | 256 (≈ 528 µM) | 0.25 (≈ 0.516 µM) | 2 (≈ 4.13 µM) | 0.5 (≈ 1.03 µM) | 0.5 (≈ 1.03 µM) |  |  | 
CCCCC1CCC(C(O)=C2C(=O)N(C(=O)OC(C)(C)C)c3cc(Cl)ccc32)CC1 (stereo not drawn) [A009, N-Boc-3-(4-butylcyclohexylcarbonyl)-6-chloro-2-oxyindole] | 128 (≈ 295 µM) | 0.5 (≈ 1.15 µM) |  |  | 1 (≈ 2.3 µM) |  | 128 (≈ 295 µM) |  | 128 (≈ 295 µM) | 32 (≈ 73.7 µM) | 256 (≈ 590 µM) | 4 (≈ 9.22 µM) | 4 (≈ 9.22 µM) |  |  | 
CCCCCCCCCCOCC(O)=C1C(=O)N(C(C)=O)c2ccc(F)cc21 [A023, N-acetyl-3-decyloxyacetyl-5-fluoro-2-oxyindole] | 128 (≈ 327 µM) | < 0.125 |  |  | < 0.125 |  | 128 (≈ 327 µM) |  | 128 (≈ 327 µM) | 1 (≈ 2.55 µM) | 64 (≈ 163 µM) | 0.25 (≈ 0.639 µM) | 0.25 (≈ 0.639 µM) |  |  | 
O=C(Nc1ccccc1)N1C(=O)C(=C(O)CCCCCCCCCBr)c2ccccc21 [A025, N-(phenylaminocarbonyl)-3-(10-bromodecanoyl)-2-oxyindole] | 256 (≈ 527 µM) | 0.5 (≈ 1.03 µM) |  |  | 1 (≈ 2.06 µM) |  | 256 (≈ 527 µM) |  | 256 (≈ 527 µM) | 2 (≈ 4.12 µM) | 256 (≈ 527 µM) | 0.5 (≈ 1.03 µM) | 0.5 (≈ 1.03 µM) |  |  | 
